Paper PMC2788677 (Journal of medicinal chemistry, 2009)

Key:
MOR [1] = experiment: Radioligand binding assay, CHO cells stably expressing MOR, [3H]DAMGO; settings: relative to dermorphin
MOR [2] = settings: cited from earlier work

Dermorphin
Rel. MOR affinity (MOR [1]): 1.0
higher affinity than morphine for MOR (MOR [2]): 100 fold
